Measurements as given in patent US11850252B2, “Use of nor-ursodeoxycholic acid for reducing liver fat” (Dr. Falk Pharma GmbH, priority 2017, dated 2023).
“And” between values parts separate entries of the source, which are not always exact repeats. Identical values can stand only once. Like-named read-outs stand apart in the source and are kept apart here.

Legend:
[1] = tested on: Patients with a clinical diagnosis of non-alcoholic hepatic steatosis; assay: Ultrasound examination of the liver (steatosis hepatis grade), phase II clinical trial; type: in vivo, human
Experimental: (§1) A double-blinded, randomized, placebo-controlled phase II clinical trial was conducted as described in the following.
(§2) Patients with a clinical diagnosis of non-alcoholic hepatic steatosis were randomized to a 12-week treatment period and a 4-week follow-up. Patients were divided into three groups. The first groups received 1,500 mg Nor-UDCA per day (6 capsules with 250 mg Nor-UDCA in each capsule). The second group received 500 mg Nor-UDCA per day (2 capsules with 250 mg Nor-UDCA in each capsule and 4 capsules with 250 mg placebo in each capsule). The third group received 6 capsules with 250 mg placebo in each capsule.
The ultrasound examination was performed at V1 or within 4 weeks before and 1 week after V1 and at V6.
The liver was scored by the most affected area.

[2] = tested on: Patients with a clinical diagnosis of non-alcoholic hepatic steatosis; assay: Liver stiffness according to Fibroscan or ARFI, phase II clinical trial; type: in vivo, human
Experimental: as §1, §2
A) If available, Fibroscan examinations were performed at V1 or within 4 weeks before and 1 week after V1 and at V6. For the purpose of this measurement, patients should be fasting.
Fibroscan is a non-invasive device (Echosens, France) for the detection steatosis hepatis by vibration-controlled transient elastography. It consists of a vibrator device coupled to an ultrasound system. The signal from this device allows a calculation of stiffness of scanned tissue, and thereby an assessment of the extent of disease. Results of liver elasticity are to be expressed by stiffness (kPa) and success rate (%).
During measurement, an ultrafast pulse echosequence is emitted (pulse repetition frequency of 6 kHz) during the propagation of the controlled shear wave. The acquisition lasts only 80 ms and strains induced in the liver by the propagation of the shear wave is measured using standard autocorrelation approach between successive ultrasound lines. Stiffness values were obtained in kPA.
Liver stiffness was measured using either of two probes (M-probe or XL-probe) and documented with the following respective thresholds for different stages:
Stage 0/1 (i.e. <stage 2): <7.0 kPa (threshold)
Stage 0/1 (i.e. <stage 2): <6.2 kPa (threshold)
B) If available, Acoustic radiation force impulse imaging (ARFI) examinations were performed at V1 or within 4 weeks before and 1 week after V1 and at V6. ARFI measurements were documented with the following thresholds for different stages:
Stage 0/1 (i.e. <stage 2): <1.34 m/s (threshold)

[3] = tested on: Patients with a clinical diagnosis of non-alcoholic hepatic steatosis; assay: Hepatic fat fraction measured by MRI and/or MRS, phase II clinical trial; type: in vivo, human
Experimental: as §1, §2
If available, magnetic resonance imaging/spectroscopy (MRI/MRS) examinations were performed at V1 or within 4 weeks before and 1 week after V1 and at V6. Both, MRI and MRS are MR-based methods to separate the liver signal into its water and fat components. The resonance frequencies corresponding to protons in water and to the dominant protons in fat are distinct, and can be quantified directly from the spectral tracing.
The following equation was to be used to calculate the hepatic fat fraction derived from chemical shift imaging (CSI) data: CSI hepatic fat fractionunoorrected=SIin phase−SIopposed phase/2×SIin phase
To account for signal intensity differences not dependent of the fat content, a region of interest was also placed in the spleen in the same image as the liver measurements were performed. To calculate the signal-intensity corrected (using the spleen measurements) hepatic fat fraction, the equation above will be adopted as follows: CSI hepatic fat fractionspleen correction=(SIin phase liver/SIspleen)−(SIopposed phase liver/SIspleen)/2×(SIin phase liver/SIspleen)
If the calculations lead to negative mean hepatic fat fraction values, these negative values were considered as a fat fraction of 0, because a negative value is not possible.
MRS were performed at 1.5 or 3.0 Tesla to determine hepatic triglyceride content (in %).

[4] = tested on: acyl coenzyme A synthetase; settings: in contrast to UDCA; cited from earlier work
[5] = tested on: mouse models of obesity and steatosis; settings: cited from earlier work
[6] = tested on: experimental alcoholic steatohepatitis; settings: preventive administration; compared to UDCA; Belonovskaya et al. (2013); cited from earlier work
[7] = N500 (500 mg Nor-UDCA per day), V1 screening
[8] = N500 (500 mg Nor-UDCA per day), V6 week 12
[9] = N1500 (1,500 mg Nor-UDCA per day), V1 screening
[10] = N1500 (1,500 mg Nor-UDCA per day), V6 week 12
[11] = N500 (500 mg Nor-UDCA per day), V6-LOCF week 12
[12] = N1500 (1,500 mg Nor-UDCA per day), V6-LOCF week 12

CC(CC(=O)O)[C@H]1CCC2[C@H]3C(CC[C@@]21C)[C@@]1(C)CCC(O)C[C@H]1C[C@@H]3O (stereo partly shown) [Nor-UDCA, 24-nor-ursodeoxycholic acid]
Number (%) of patients, steatosis hepatis grade Mild steatosis (S1) [1, 7]: 21.2% | Number (%) of patients, steatosis hepatis grade Moderate steatosis (S2) [1, 7]: 45.5% | Number (%) of patients, steatosis hepatis grade No/minimal steatosis (S0) [1, 7]: 6.1% | Number (%) of patients, steatosis hepatis grade Severe steatosis (S3) [1, 7]: 27.3% | Number (%) of patients, steatosis hepatis grade Mild steatosis (S1) [1, 8]: 28.8% | Number (%) of patients, steatosis hepatis grade Moderate steatosis (S2) [1, 8]: 51.5% | Number (%) of patients, steatosis hepatis grade No/minimal steatosis (S0) [1, 8]: 3.0% | Number (%) of patients, steatosis hepatis grade Severe steatosis (S3) [1, 8]: 16.7% | Number (%) of patients, steatosis hepatis grade Mild steatosis (S1) [1, 9]: 26.6% | Number (%) of patients, steatosis hepatis grade Moderate steatosis (S2) [1, 9]: 53.1% | Number (%) of patients, steatosis hepatis grade No/minimal steatosis (S0) [1, 9]: 0.0% | Number (%) of patients, steatosis hepatis grade Severe steatosis (S3) [1, 9]: 20.3% | Number (%) of patients, steatosis hepatis grade Mild steatosis (S1) [1, 10]: 26.6% | Number (%) of patients, steatosis hepatis grade Moderate steatosis (S2) [1, 10]: 62.5% | Number (%) of patients, steatosis hepatis grade No/minimal steatosis (S0) [1, 10]: 0.0% | Number (%) of patients, steatosis hepatis grade Severe steatosis (S3) [1, 10]: 10.9% | Number (%) of patients, liver stiffness Stage 0/1 [2, 7]: 62.5% | Number (%) of patients, liver stiffness Stage = 4 [2, 7]: 12.5% | Number (%) of patients, liver stiffness Stage ≥2 [2, 7]: 14.6% | Number (%) of patients, liver stiffness Stage ≥3 [2, 7]: 10.4% | Number (%) of patients, liver stiffness Stage 0/1 [2, 11]: 58.3% | Number (%) of patients, liver stiffness Stage = 4 [2, 11]: 10.4% | Number (%) of patients, liver stiffness Stage ≥2 [2, 11]: 22.9% | Number (%) of patients, liver stiffness Stage ≥3 [2, 11]: 8.3% | Number (%) of patients, liver stiffness Stage 0/1 [2, 9]: 55.6% | Number (%) of patients, liver stiffness Stage = 4 [2, 9]: 19.4% | Number (%) of patients, liver stiffness Stage ≥2 [2, 9]: 17.6% | Number (%) of patients, liver stiffness Stage ≥3 [2, 9]: 8.3% | Number (%) of patients, liver stiffness Stage 0/1 [2, 12]: 67.5% | Number (%) of patients, liver stiffness Stage = 4 [2, 12]: 15.0% | Number (%) of patients, liver stiffness Stage ≥2 [2, 12]: 12.5% | Number (%) of patients, liver stiffness Stage ≥3 [2, 12]: 5.0% | percentage of patients with stage 0/1 liver stiffness, change in the course of the study ([2]; group receiving 500 mg Nor-UDCA): decreased | Hepatic fat fraction measured by MRI and/or MRS, Mean ± SD [3, 7]: 14.6 ± 14.5% | Hepatic fat fraction measured by MRI and/or MRS, Mean ± SD [3, 11]: 15.5 ± 13.5% | Hepatic fat fraction measured by MRI and/or MRS, Mean ± SD [3, 9]: 21.3% and 21.3 ± 15.4% | Hepatic fat fraction measured by MRI and/or MRS, Mean ± SD [3, 12]: 16.3% and 16.3 ± 14.4% | decrease in the hepatic fat fraction ([3]; group receiving 500 mg): no substantial decrease | N-acyl amidation with taurine or glycine [4]: only minimal | substrate for acyl coenzyme A synthetase [4]: poor substrate | reduction in ALT ([5]; mouse model of obesity and steatosis, Steinacher et al. (2015)): significant reduction | reduction in ALT ([5]; mouse models of obesity and steatosis, Steinacher et al. (2017)): considerable reduction | preventing the accumulation of triglycerides in the liver [6]: most effective
